Earlier results as cited in patent US12478584B1, “Atomoxetine hydrochloride oral suspension and use thereof” (OWP Pharmaceuticals, Inc., priority 2025, dated 2025).

Conditions: standard temperature and pressure

## CNCC[C@@H](Oc1ccccc1C)c1ccccc1.Cl [Atomoxetine, (3R)—N-methyl-3-(2-methylphenoxy)-3-phenylpropan-1-amine]
  water solubility: 27.8 mg/mL
